Source: patent US10703755B2, “Substituted purine derivative” (SUMITOMO DAINIPPON PHARMA CO., LTD., priority 2016, dated 2020)

Biological target: human TLR7 (Homo sapiens (Human), UniProt Q9NYK1)
Test: Test for evaluating the inhibition of the activation of human TLR7 (SEAP reporter, TLR7/NF-κB/SEAPorter HEK293 cell)
Assay type: cell-based
Conditions: R-848 200 nmol/L; for IC50: SEAP reporter; for inhibitory effect against TLR7 in the test for evaluating inhibition of the activation of TLR7: SEAP activity, result in words
Description: As human TLR7 expressing cell line, HEK293 cell line was bought from IMGENEX Corporation (TLR7/NF-ηB/SEAPorter™ HEK293 cell), which is human embryonic kidney cell line and stably expresses full-length human TLR7 gene and secreted alkaline phosphatase (SEAP) reporter gene under the transcriptional control of an NE-ηB response element. The TLR7/NF-ηB/SEAPorter™ HEK293 cell was cultivated with DMEM containing 10% fetal bovine serum (FBS) and 10 μg/mL blasticidin S at 37° C. in the presence of 5% CO2. The TLR7/NF-ηB/SEAPorter™ HEK293 cell was seeded into 96-well microtiter plate at 5×10^4 cell/90 μL/well, and the place was cultivated at 37° C. in a CO2 incubator overnight.
Each compound prepared in the Examples was evaluated by Test 1.

Sequence of human TLR7 (Q9NYK1 27-1049): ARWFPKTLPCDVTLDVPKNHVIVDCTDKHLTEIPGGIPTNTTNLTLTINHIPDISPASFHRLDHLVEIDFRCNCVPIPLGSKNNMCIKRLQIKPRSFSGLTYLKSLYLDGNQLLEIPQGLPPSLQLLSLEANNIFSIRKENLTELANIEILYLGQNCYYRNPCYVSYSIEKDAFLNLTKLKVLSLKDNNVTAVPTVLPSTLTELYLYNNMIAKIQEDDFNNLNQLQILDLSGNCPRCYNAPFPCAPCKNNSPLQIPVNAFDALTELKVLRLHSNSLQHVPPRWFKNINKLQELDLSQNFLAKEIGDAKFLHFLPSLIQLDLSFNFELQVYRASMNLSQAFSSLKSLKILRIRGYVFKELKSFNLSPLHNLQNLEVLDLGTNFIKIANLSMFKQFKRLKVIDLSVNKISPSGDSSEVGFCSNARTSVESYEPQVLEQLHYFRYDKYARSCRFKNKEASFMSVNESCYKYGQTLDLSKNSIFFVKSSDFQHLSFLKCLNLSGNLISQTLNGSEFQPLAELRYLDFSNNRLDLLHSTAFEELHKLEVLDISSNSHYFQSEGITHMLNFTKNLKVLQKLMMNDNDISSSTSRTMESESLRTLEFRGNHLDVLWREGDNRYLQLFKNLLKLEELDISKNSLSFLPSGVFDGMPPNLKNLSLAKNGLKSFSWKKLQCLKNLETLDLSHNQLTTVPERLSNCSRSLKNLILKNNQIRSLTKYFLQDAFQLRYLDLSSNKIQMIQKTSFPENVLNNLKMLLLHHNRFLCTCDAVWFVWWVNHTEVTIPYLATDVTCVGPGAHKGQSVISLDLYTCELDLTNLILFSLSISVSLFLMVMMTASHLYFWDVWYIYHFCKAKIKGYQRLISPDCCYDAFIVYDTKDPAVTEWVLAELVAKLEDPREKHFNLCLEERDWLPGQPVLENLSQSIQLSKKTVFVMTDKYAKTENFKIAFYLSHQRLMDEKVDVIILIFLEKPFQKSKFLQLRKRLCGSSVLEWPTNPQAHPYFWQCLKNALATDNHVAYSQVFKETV

Row | SMILES | IC50 | inhibitory effect against TLR7 in the test for evaluating inhibition of the activation of TLR7
1 | CCCCOc1nc(C)c2nc(-c3cncc(F)c3)n(Cc3ccccc3)c2n1 [Example 141, 9-Benzyl-2-butoxy-8-(5-fluoropyridin-3-yl)-6-methyl-9H-purine] | 3300 nM | 
2 | CCOc1nc(N)c2nc(-c3cncc(F)c3)n(Cc3ccc(C4CCN(C5COC5)CC4)cc3)c2n1 [Example 135] | 85 nM | potent inhibitory effect against TLR7
3 | CCCCOc1nc(N)c2nc(-c3cncc(F)c3)n(Cc3ccc(CN4CCOCC4)cc3)c2n1 [Example 83] | 1300 nM | 
4 | CCOc1nc(C)c2nc(-c3cncc(F)c3)n(Cc3ccc(C4CN5CCC4CC5)cc3F)c2n1 (stereo not shown) [Example 172] | 3 nM | potent inhibitory effect against TLR7
5 | CCOc1nc(N)c2nc(-c3cncc(F)c3)n(Cc3ccc(O[C@@H]4CN5CCC4CC5)nc3)c2n1 [Example 40] | 120 nM | 
6 | COCCOc1nc(N)c2nc(-c3cncc(OC)c3)n(Cc3ccccc3)c2n1 [Example 24] | 13700 nM | 
7 | COc1nc(C)c2nc(-c3ccc(C)nc3)n(Cc3ccc(C4CN5CCC4CC5)cc3F)c2n1 (stereo not shown) [Example 306] | 40 nM | potent inhibitory effect against TLR7
8 | CCCCNc1nc(N)c2nc(-c3cncc(OC)c3)n(Cc3ccccc3)c2n1 [Example 26] | 18700 nM | 
9 | CCOc1nc(N)c2nc(-c3cncc(F)c3)n(Cc3ccc(CN4CCCCC4)cc3)c2n1 [Example 98] | 71 nM | potent inhibitory effect against TLR7
10 | COc1nc(C)c2nc(-c3cncc(F)c3)n(Cc3ccc(C4CN5CCC4CC5)cc3F)c2n1 (stereo not shown) [Example 393, 9-[4-(1-azabicyclo[2.2.2]oct-3-yl)-2-fluorobenzyl]-8-(5-fluoropyridin-3-yl)-2-methoxy-6-methyl-9H-purine] |  | potent inhibitory effect against TLR7
11 | COc1nc(C)c2nc(-c3cncc(F)c3)n(Cc3ccc(O[C@H]4CN5CCC4CC5)cc3F)c2n1 [Example 413, 9-{4-[(3R)-1-azabicyclo[2.2.2]oct-3-yloxy]-2-fluorobenzyl}-8-(5-fluoropyridin-3-yl)-2-methoxy-6-methyl-9H-purine] | 9 nM | potent inhibitory effect against TLR7
12 | CCOc1nc(N)c2nc(-c3cncc(F)c3)n(Cc3ccc(OC4CCN(C)CC4)nc3)c2n1 [Example 60] | 230 nM | 
13 | COc1nc(C)c2nc(-c3cncc(F)c3)n(Cc3ccc(C4CN5CCC4CC5)c(F)c3)c2n1 (stereo not shown) [Example 377, 9-[4-(1-azabicyclo[2.2.2]oct-3-yl)-3-fluorobenzyl]-8-(5-fluoropyridin-3-yl)-2-methoxy-6-methyl-9H-purine] | 7 nM | potent inhibitory effect against TLR7
14 | Cc1nc(O)nc2c1nc(-c1cncc(F)c1)n2Cc1ccc(C2CN3CCC2CC3)cc1 (stereo not shown) [Example 388, 9-[4-(1-Azabicyclo[2.2.2]oct-3-yl)benzyl]-8-(5-fluoropyridin-3-yl)-6-methyl-9H-purin-2-ol] | 1350 nM | 
15 | COc1nc(C)c2nc(-c3cncc(F)c3)n(Cc3ccc(C4CN5CCC4CC5)cc3F)c2n1 (single isomer, unassigned) [Example 392, 9-[4-(1-azabicyclo[2.2.2]oct-3-yl)-2-fluorobenzyl]-8-(5-fluoropyridin-3-yl)-2-methoxy-6-methyl-9H-purine] | 13 nM | 
16 | CCCCOc1nc(N)c2nc(-c3cncc(C)c3)n(Cc3cccc(CN(C)C)c3)c2n1 [Example 85] | 800 nM | 
17 | CCCCOc1nc(N)c2nc(-c3ccoc3)n(Cc3ccccc3)c2n1 [Example 7] | 7800 nM | 
18 | COc1nc(C)c2nc(-c3cncc(F)c3)n(Cc3cccc(C4CN5CCC4CC5)c3)c2n1 (stereo not shown) [Example 386, 9-[3-(1-azabicyclo[2.2.2]oct-3-yl)benzyl]-8-(5-fluoropyridin-3-yl)-2-methoxy-6-methyl-9H-purine] | 13 nM | potent inhibitory effect against TLR7
19 | CN(C)Cc1ccc(Cn2c(-c3cncc(F)c3)nc3c(N)nc(OCC4CCOCC4)nc32)cc1 [Example 152] | 2900 nM | 
20 | CCOc1nc(C)c2nc(-c3cncc(F)c3)n(Cc3cnn(C4CN5CCC4CC5)c3)c2n1 (stereo not shown) [Example 167] | 110 nM | 
21 | CCOc1nc(N)c2nc(-c3cncc(F)c3)n(Cc3ccc(C(=O)NCCN4CCCC4)cc3)c2n1 [Example 146] | 1700 nM | 
22 | COc1nc(C)c2nc(-c3ccncc3)n(Cc3ccc(C4CN5CCC4CC5)cc3F)c2n1 (stereo not shown) [Example 347] | 35 nM | potent inhibitory effect against TLR7
23 | CCCCOc1nc(N)c2nc(-c3ccc(N(C)C)cc3)n(Cc3ccccc3)c2n1 [Example 179] | 16200 nM | 

Second part, the compound after the results:

Row | IC50 | inhibitory effect against TLR7 in the test for evaluating inhibition of the activation of TLR7 | SMILES
24 | 13700 nM |  | COCC(C)Oc1nc(N)c2nc(-c3cncc(F)c3)n(Cc3ccc(CN(C)C)cc3)c2n1 (stereo not shown) [Example 158, 9-{4-[(Dimethylamino)methyl]benzyl}-8-(5-fluoropyridin-3-yl)-2-[(1-methoxypropan-2-yl)oxy]-9H-purine-6-amine]
25 | 100 nM |  | COCCOc1nc(C)c2nc(-c3cncc(F)c3)n(Cc3ccc(CN4CCN(C)CC4)cc3)c2n1 [Example 115]
26 | 36 nM | potent inhibitory effect against TLR7 | COc1nc(C)c2nc(-c3cccnc3)n(Cc3ccc(C4CCNCC4)cc3F)c2n1 [Example 345]
27 | 930 nM |  | CN(C)Cc1ccc(Cn2c(-c3cncc(F)c3)nc3c(N)nc(OCC(F)F)nc32)cc1 [Example 159]
28 | 8 nM | potent inhibitory effect against TLR7 | COc1nc(C)c2nc(-c3cncc(F)c3)n(Cc3ccc(C4CCN(C)CC4)cc3F)c2n1 [Example 282, 9-[2-fluoro-4-(1-methylpiperidin-4-yl)benzyl]-8-(5-fluoropyridin-3-yl)-2-methoxy-6-methyl-9H-purine]
29 | 445 nM |  | CCOc1nc(C)c2nc(-c3cncc(F)c3)n(Cc3cnn(CCN(C)C)c3)c2n1 [Example 244]
30 | 712 nM |  | COc1nc(C)c2nc(-c3cncc(F)c3)n(Cc3ccc(OCC4CN(C(=O)OC(C)(C)C)C4)cc3F)c2n1 [Example 419]
31 | 93 nM |  | CCOc1nc(C)c2nc(-c3cncc(F)c3)n(Cc3cnn(CC4CNCCO4)c3)c2n1 (stereo not shown) [Example 425]
32 | 23 nM | potent inhibitory effect against TLR7 | CCOc1nc(C)c2nc(-c3cncc(F)c3)n(Cc3cnn(CC4CCCN(C)C4)c3)c2n1 (stereo not shown) [Example 277]
33 | 27 nM | potent inhibitory effect against TLR7 | CCOc1nc(C)c2nc(-c3cncc(F)c3)n(Cc3ccc(CN4CCN(C)CC4)cc3)c2n1 [Example 262]
34 | 200 nM |  | COc1nc(C)c2nc(-c3cncc(F)c3)n(Cc3cnn(CCN(C)C)c3)c2n1 [Example 250]
35 | 680 nM |  | CCOc1nc(N)c2nc(-c3cncc(F)c3)n(Cc3ccc(N(C)CCN(C)C)nc3)c2n1 [Example 64, N-(5-{[6-Amino-2-ethoxy-8-(5-fluoropyridin-3-yl)-9H-purin-9-yl]methyl}pyridin-2-yl)-N,N′,N′-trimethylethane-1,2-diamine]
36 | 5 nM | potent inhibitory effect against TLR7 | CCOc1nc(C)c2nc(-c3cncc(F)c3)n(Cc3ccc(CN4C[C@H]5C[C@@H]4CN5C)cc3)c2n1 [Example 110, 2-ethoxy-8-(5-fluoropyridin-3-yl)-6-methyl-9-(4-{[(1R,4R)-5-methyl-2,5-diazabicyclo[2.2.1]hept-2-yl]methyl}benzyl)-9H-purine]
37 | 1520 nM |  | CCOc1nc(C)c2nc(-c3cncc(F)c3)n(Cc3ccc(Br)cc3OC)c2n1 [Example 325]
38 | 1690 nM |  | CCOc1nc(C)c2nc(-c3cncc(F)c3)n(Cc3cnc(CC4CCN(C(=O)OC(C)(C)C)CC4)cc3OC)c2n1 [Example 369]
39 | 82 nM |  | CCOc1nc(C)c2nc(-c3cncc(F)c3)n(Cc3ccc(C4CCCN4C)cc3)c2n1 (stereo not shown) [Example 170]
40 | 30 nM | potent inhibitory effect against TLR7 | CCN1CCC(c2ccc(Cn3c(-c4cncc(C#N)c4)nc4c(C)nc(OC)nc43)c(F)c2)CC1 [Example 289, 5-{9-[4-(1-ethylpiperidin-4-yl)-2-fluorobenzyl]-2-methoxy-6-methyl-9H-purin-8-yl}pyridine-3-carbonitrile]
41 | 28 nM | potent inhibitory effect against TLR7 | COc1nc(N)c2nc(-c3cncc(F)c3)n(Cc3ccc(CN4C[C@@H]5C[C@H]4CN5C)cc3)c2n1 [Example 161]
42 | 520 nM |  | CCOc1nc(N)c2nc(-c3cncc(F)c3)n(Cc3ccc(O[C@@H]4CCN(C)C4)nc3)c2n1 [Example 38]
43 | 199 nM |  | CCOc1nc(C)c2nc(-c3cncc(F)c3)n(Cc3cnc(C4CCN(C)CC4)cc3OC)c2n1 [Example 375]
44 | 8900 nM |  | CCc1nc(N)c2nc(-c3cncc(F)c3)n(Cc3ccc(CN(C)C)cc3)c2n1 [Example 157]
45 | 816 nM |  | COc1nc(C)c2nc(-c3cncc(F)c3)n(Cc3ccc(OS(C)(=O)=O)cc3F)c2n1 [Example 342]
46 | 2100 nM |  | CCOc1nc(N)c2nc(-c3cncc(F)c3)n(Cc3ccc(C(=O)NCCN(C)C)cc3)c2n1 [Example 145]
